ChEMBL document CHEMBL2331397, “Indoleamine 2,3-dioxygenase inhibitory activity of derivatives of marine alkaloid tsitsikammamine A” (Bioorg Med Chem Lett, 2013)
Calls of active or inactive are those of the source. The rule behind the calls is not given here.

Tests used:
[1] = Cytotoxicity against mouse P815B cells assessed as cell viability at 10 uM by MTT assay relative to control; format: cell-based; conditions: read-out: Activity
[2] = biological target: Tryptophan 2,3-dioxygenase (Mus musculus) (UniProt P48776); assay: Inhibition of mouse TDO overexpressed in mouse P815B cells using L-Trp as substrate assessed as kynurenine level at 10 uM by HPLC analysis relative to control; format: cell-based
Sequence of Tryptophan 2,3-dioxygenase (Mus musculus) (P48776 whole entry): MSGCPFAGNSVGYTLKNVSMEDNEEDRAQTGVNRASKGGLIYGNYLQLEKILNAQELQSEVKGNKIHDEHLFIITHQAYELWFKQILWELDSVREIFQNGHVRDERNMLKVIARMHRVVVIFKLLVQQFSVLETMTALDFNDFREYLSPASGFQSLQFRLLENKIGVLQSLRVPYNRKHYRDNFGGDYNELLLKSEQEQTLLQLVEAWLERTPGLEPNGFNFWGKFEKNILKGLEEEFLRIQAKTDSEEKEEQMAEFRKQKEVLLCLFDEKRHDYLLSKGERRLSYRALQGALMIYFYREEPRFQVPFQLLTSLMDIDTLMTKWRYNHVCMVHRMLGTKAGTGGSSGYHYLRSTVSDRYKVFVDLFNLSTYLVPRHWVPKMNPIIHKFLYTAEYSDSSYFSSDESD

[3] = biological target: Indoleamine 2,3-dioxygenase 1 (Mus musculus) (UniProt P28776); assay: Inhibition of mouse IDO1 overexpressed in mouse P815B cells using L-Trp as substrate assessed as kynurenine level at 10 uM by HPLC analysis relative to control; format: cell-based
Sequence of Indoleamine 2,3-dioxygenase 1 (Mus musculus) (P28776 whole entry, looked up): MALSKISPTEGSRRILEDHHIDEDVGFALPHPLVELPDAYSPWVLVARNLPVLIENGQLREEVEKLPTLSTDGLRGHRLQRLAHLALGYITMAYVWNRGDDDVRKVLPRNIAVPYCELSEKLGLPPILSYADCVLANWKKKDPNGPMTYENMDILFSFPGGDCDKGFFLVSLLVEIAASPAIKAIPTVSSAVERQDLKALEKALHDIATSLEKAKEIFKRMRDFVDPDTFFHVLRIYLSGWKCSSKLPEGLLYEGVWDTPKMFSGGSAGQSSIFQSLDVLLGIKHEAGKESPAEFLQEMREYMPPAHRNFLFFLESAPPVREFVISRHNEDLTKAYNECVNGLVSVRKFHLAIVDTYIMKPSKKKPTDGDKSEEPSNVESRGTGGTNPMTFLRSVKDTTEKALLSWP

[4] = biological target: T1, Indoleamine 2,3-dioxygenase 1 (Homo sapiens, UniProt P14902); assay: Inhibition of human recombinant IDO1 using L-Trp as substrate assessed as kynurenine level after 30 mins
[5] = biological target: T1, Indoleamine 2,3-dioxygenase 1; assay: Uncompetitive inhibition of hexahistidyl-tagged human IDO1
Target sequence in this assay (P14902 whole entry): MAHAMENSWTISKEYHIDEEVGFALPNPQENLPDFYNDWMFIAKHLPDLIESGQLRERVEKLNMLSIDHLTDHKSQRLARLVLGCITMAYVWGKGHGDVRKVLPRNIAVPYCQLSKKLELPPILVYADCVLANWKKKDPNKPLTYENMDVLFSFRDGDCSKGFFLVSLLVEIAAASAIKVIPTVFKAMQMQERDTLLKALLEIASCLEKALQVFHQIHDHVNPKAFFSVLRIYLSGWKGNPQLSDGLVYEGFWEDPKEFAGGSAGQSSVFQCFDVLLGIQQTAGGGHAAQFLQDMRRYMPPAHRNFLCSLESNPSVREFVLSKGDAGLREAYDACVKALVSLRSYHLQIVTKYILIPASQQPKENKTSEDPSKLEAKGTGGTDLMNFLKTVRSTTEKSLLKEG

[6] = biological target: Indoleamine 2,3-dioxygenase 1 (Mus musculus) (UniProt P28776); assay: Inhibition of mouse IDO1 overexpressed in mouse P815B cells using L-Trp as substrate assessed as kynurenine level at 22 uM by HPLC analysis relative to control; format: cell-based
[7] = biological target: Tryptophan 2,3-dioxygenase (Mus musculus) (UniProt P48776); conditions: P815B, 22 uM
Description: Inhibition of mouse TDO overexpressed in mouse P815B cells using L-Trp as substrate assessed as kynurenine level at 22 uM by HPLC analysis relative to control

## COc1ccc(C2CNC3=C2C(=O)c2ccn(S(=O)(=O)c4ccc(C)cc4)c2C3=O)cc1 (configuration not stated)
[1]
  viability at 10 µM: > 90%
[2]
  inhibition: 2.5%
[3]
  inhibition: 40.2%
[4]
  IC50: 1.8 µM

## O=C1c2[nH]ccc2C(=O)c2c(-c3ccc(O)cc3)c[nH]c21
[1]
  viability at 10 µM: > 90%
[2]
  inhibition: inactive
[3]
  inhibition: inactive
[4]
  inhibition: < 50%

## CO[C@@]12[C@H](COC(N)=O)C3=C(C(=O)C(C)=C(N)C3=O)N1C[C@@H]1N[C@@H]12 [MITOMYCIN]
[5]
  Ki: 25 µM

## COc1ccc(-c2c[nH]c3c2C(=O)c2cc[nH]c2C3=O)cc1
[1]
  viability at 10 µM: < 50%
[4]
  IC50: 12.6 µM

## COc1ccc(-c2c[nH]c3c2C(=O)c2c(CCN)cn(S(=O)(=O)c4ccc(C)cc4)c2C3=O)cc1
[1]
  viability at 10 µM: 80%
[2]
  inhibition: inactive
[3]
  inhibition: 15.6%
[4]
  IC50: 5.4 µM

## COc1ccc(-c2c[nH]c3c2C2=NCCc4c[nH]c(c42)C3=O)cc1
[1]
  viability at 10 µM: > 90%
[2]
  inhibition: inactive
[3]
  inhibition: 19.4%
[4]
  IC50: 0.9 µM

## COc1ccc(C(O)CNC2=CC(=O)c3c(CCNC(=O)OC(C)(C)C)cn(S(=O)(=O)c4ccc(C)cc4)c3C2=O)cc1 (configuration not stated)
[1]
  viability at 10 µM: > 90%
[2]
  inhibition: inactive
[3]
  inhibition: 31.3%
[4]
  IC50: 26.9 µM

## COc1ccc(C(O)CNC2=CC(=O)c3c(c(CCNC(=O)OC(C)(C)C)cn3S(=O)(=O)c3ccc(C)cc3)C2=O)cc1 (configuration not stated)
[1]
  viability at 10 µM: > 90%
[2]
  inhibition: inactive
[3]
  inhibition: 17.4%
[4]
  IC50: 10.1 µM

## COc1ccc(C2CNC3=C2C(=O)c2c(c(CCN)cn2S(=O)(=O)c2ccc(C)cc2)C3=O)cc1 (configuration not stated)
[1]
  viability at 10 µM: > 90%
[2]
  inhibition: 4.7%
[3]
  inhibition: 40.2%
[4]
  IC50: 5.6 µM

## Cn1cc(C[C@H](N)C(=O)O)c2ccccc21 [(L)-1-METHYLTRYPTOPHAN]
[6]
  inhibition: 14.5%
[1]
  viability at 10 µM: > 90%
[7]
  inhibition: inactive

## COc1ccc(-c2c[nH]c3c2C(=O)c2[nH]cc4c2C3=NCC4)cc1
[1]
  viability at 10 µM: < 50%
[4]
  IC50: 7.1 µM

## COc1ccc(C(O)CNC2=CC(=O)c3ccn(S(=O)(=O)c4ccc(C)cc4)c3C2=O)cc1 (configuration not stated)
[1]
  viability at 10 µM: > 90%
[2]
  inhibition: inactive
[3]
  inhibition: 24.3%
[4]
  IC50: 2.5 µM

## COc1ccc(-c2c[nH]c3c2C2=NCCc4cn(S(=O)(=O)c5ccc(C)cc5)c(c42)C3=O)cc1
[1]
  viability at 10 µM: > 90%
[2]
  inhibition: 3.1%
[3]
  inhibition: 32%
[4]
  IC50: 2.2 µM

## COc1ccc(-c2c[nH]c3c2C(=O)c2c4c(cn2S(=O)(=O)c2ccc(C)cc2)CCN=C34)cc1
[1]
  viability at 10 µM: < 50%
[4]
  IC50: 4.2 µM

## COc1ccc(-c2c[nH]c3c2C(=O)c2ccn(S(=O)(=O)c4ccc(C)cc4)c2C3=O)cc1
[1]
  viability at 10 µM: > 90%
[2]
  inhibition: inactive
[3]
  inhibition: 19.6%
[4]
  inhibition: < 50%

## COc1ccc(C2CNC3=C2C(=O)c2c(CCN)cn(S(=O)(=O)c4ccc(C)cc4)c2C3=O)cc1 (configuration not stated)
[1]
  viability at 10 µM: 83%
[2]
  inhibition: inactive
[3]
  inhibition: 26.1%
[4]
  IC50: 2.8 µM

## COc1ccc(C(O)CNC2=CC(=O)c3c(ccn3S(=O)(=O)c3ccc(C)cc3)C2=O)cc1 (configuration not stated)
[1]
  viability at 10 µM: > 90%
[2]
  inhibition: 1.1%
[3]
  inhibition: 37.3%
[4]
  IC50: 8.8 µM

## O=C1c2[nH]cc3c2C(=NCC3)c2[nH]cc(-c3ccc(O)cc3)c21
[1]
  viability at 10 µM: > 90%
[2]
  inhibition: inactive
[3]
  inhibition: 5.3%
[4]
  IC50: 7 µM

## COc1ccc(-c2c[nH]c3c2C(=O)c2c(c(CCN)cn2S(=O)(=O)c2ccc(C)cc2)C3=O)cc1
[1]
  viability at 10 µM: > 90%
[2]
  inhibition: inactive
[3]
  inhibition: 26%
[4]
  IC50: 11.9 µM

## COc1ccc(C2CNC3=C2C(=O)c2c(ccn2S(=O)(=O)c2ccc(C)cc2)C3=O)cc1 (configuration not stated)
[1]
  viability at 10 µM: > 90%
[2]
  inhibition: 3.2%
[3]
  inhibition: 54.2%
[4]
  IC50: 5.6 µM

## COc1ccc(-c2c[nH]c3c2C(=O)c2[nH]ccc2C3=O)cc1
[1]
  viability at 10 µM: < 50%
[4]
  IC50: 22.4 µM
